# According to patent US20180214423A1, “PHARMACEUTICAL COMPOSITION COMPRISING RAPAMYCIN OR DERIVATIVE THEREOF, AND METHOD FOR PRODUCING THE SAME” (NIPPON KAYAKU KABUSHIKI KAISHA, priority 2015, published 2018):
# Experiments:
# [1] = cited from earlier work
# [2] = Test Example B1: preservation stability of everolimus compositions and active pharmaceutical ingredient, residual everolimus by HPLC; format: physicochemical; conditions: light-shielded, 60° C.
# Method: It is to be noted that, in the analysis using liquid chromatography (HPLC) in the present test examples, the measurement was carried out under the following conditions. • Measurement column: Zorbax Eclipse XDB-C18, Rapid resolution HT, 100 mm ×4.6 mm, L8 μm • Detector: ultraviolet absorption spectrophotometer (measurement wavelength: 278 nm) • Column temperature: 45° C. • Mobile phase A: 0.1% formic acid; mobile phase B: methanol/acetonitrile=50/50 • Concentration gradient of mobile phase:
# The pharmaceutical compositions obtained by the methods of Example B1 and Comparative Examples B1 to B4 (approximately 1 g each) and the active pharmaceutical ingredient of everolimus (100 mg) were each collected in a brown sample bottle, and were then preserved under light-shielded conditions at 60° C., in a desiccator, the humidity of which had been adjusted with a saturated cobalt chloride aqueous solution (relative humidity: approximately 49%), while the bottle was uncapped.
# The residual amounts of everolimus 10 days and 14 days after initiation of the preservation test were measured by liquid chromatography (HPLC), and the residual percentages of everolimus at individual time points were then calculated. It is to be noted that the residual percentage was calculated according to the following formula. The results are shown in Table 5. • Residual percentage (%) of everolimus (peak area of everolimus measured by HPLC at each time point/weighed value of powders)/(peak area of everolimus measured by HPLC before preservation (initial)/weighed value of powders)× 100.
Structure (SMILES),critical relative humidity at 25° C. [1],decomposition reaction such as oxidation on preservation (in words) ([2]; relative humidity approximately 49%),"Residual percentage (%) of everolimus, Value on Day 10 ([2]; relative humidity approximately 49% (saturated cobalt chloride), uncapped, Day 10)","Residual percentage (%) of everolimus, Value on Day 14 ([2]; relative humidity approximately 49% (saturated cobalt chloride), uncapped, Day 14)"
OC[C@H]1O[C@H](O[C@H]2O[C@H](CO)[C@@H](O)[C@H](O)[C@H]2O)[C@H](O)[C@@H](O)[C@@H]1O [trehalose],≥ 95%,,,
OC[C@@H](O)[C@@H](O)[C@H](O)[C@@H](O)CO [sorbitol],approximately 70%,,,
OC[C@@H](O)[C@@H](O)[C@H](O)[C@H](O)CO [mannitol],≥ 95%,,,
CO[C@H]1C[C@@H]2CC[C@@H](C)[C@@](O)(O2)C(=O)C(=O)N2CCCC[C@H]2C(=O)O[C@H]([C@H](C)C[C@@H]2CC[C@@H](OCCO)[C@H](OC)C2)CC(=O)[C@H](C)/C=C(\C)[C@@H](O)[C@@H](OC)C(=O)[C@H](C)C[C@H](C)/C=C/C=C/C=C/1C [40-O-(2-hydroxyethyl)rapamycin],,rapidly progresses,5%,2%
OC[C@H]1O[C@@H](O[C@H]2[C@H](O)[C@@H](O)C(O)O[C@@H]2CO)[C@H](O)[C@@H](O)[C@H]1O (stereo partly shown) [lactose],≥ 95%,,,
